One assay concerns E. coli bacteria. Briefly: Antimicrobial activity against E. coli (inhibition zone, MIC). The class given is cell-based. The conditions noted are these: in vitro.
The test system of a further assay is Aspergillus flavus fungi. Briefly: Antifungal activity against Aspergillus flavus (inhibition zone, MIC). The format is cell-based. The conditions noted are these: in vitro.
For assay [1], the system named is breast cancer cell line. The experiment in a line: In vitro anti-cancer activity against breast cancer cell line. The format is cell-based, human.
Assay [2] has as its system breast cancer cell line. The experiment in a line: Antioxidant activity. The format is cell-based. To be noted: printed as against a breast cancer cell line.
Where [3] appears, read: listed as prepared nano complex.

Converted amounts (≈) assume the structure as drawn. Where two headings read alike, the source gives them in different places.

Usually MIC stands for the least concentration at which growth counts as inhibited. Regarding “4-Bromo-2-[(9H-purin-6-ylimino)-methyl]-phenol imine Pd(II) complex [prepared complex]”, the MIC against E. coli bacteria (setting [3]) was 1.00 mg/L; against E. coli bacteria (listed as present complex), “about 1.0 μg/ml”; in the assay with Aspergillus flavus fungi it was 1.50 mg/L; in the assay with Aspergillus flavus fungi (listed as present complex), “about 1.50 μg/ml”. Moreover, the inhibition zone was 40 mm in the assay on E. coli bacteria (setting [3]), “about 40 mm” in the assay on E. coli bacteria (listed as present complex), 30 mm in the assay with Aspergillus flavus fungi and “about 30 mm” in the assay with Aspergillus flavus fungi (listed as present complex). Besides, the “IC50 (anticancer activity)” value in the assay on breast cancer cell line [1] worked out at 2.2 mg/L. The “IC50 (antioxidant activity)” value in the assay with breast cancer cell line [2] stood at 7.5 mg/L.
With `O=C1O[C@H]([C@@H](O)CO)C(O)=C1O` [1-ascorbic acid, reference compound], the “IC50 (antioxidant activity)” value in the assay on breast cancer cell line [2] was 45.7 mg/L (≈ 259 µM).
For orientation: IC50 means the point on the concentration scale where inhibition reaches its midpoint. Consider `CC[C@]1(O)C[C@@H]2CN(CCc3c([nH]c4ccccc34)[C@@](C(=O)OC)(c3cc4c(cc3OC)N(C)[C@H]3[C@@](O)(C(=O)OC)[C@H](OC(C)=O)[C@]5(CC)C=CCN6CC[C@]43[C@@H]65)C2)C1` [vinblastine, reference compound], for which the IC50 in the assay on breast cancer cell line [1] (Homo sapiens, read-out: IC50 (anticancer activity)) was found to be 4.7 mg/L (≈ 5.8 µM).
`OC(Cn1cncn1)(Cn1cncn1)c1ccc(F)cc1F` [Fluconazol, reference compound] displayed an inhibition zone with Aspergillus flavus fungi of 24 mm. In addition, in the assay on Aspergillus flavus fungi (read-out: MIC), the MIC is 2 mg/L (≈ 6.53 µM).
Consider `CC1COc2c(N3CCN(C)CC3)c(F)cc3c(=O)c(C(=O)O)cn1c23` (stereo not shown) [Ofloxacin, reference compound], for which, in the assay with E. coli bacteria (Escherichia coli, read-out: MIC), the MIC was determined as 2.5 mg/L (≈ 6.92 µM). In the assay on E. coli bacteria, this molecule came in with an inhibition zone of 35 mm.

The values are drawn from patent publication US11840547B1, “Nano-sized 4-Bromo-2-[(9H-purin-6-ylimino)-methyl]-phenol imine Pd(II) complex for superior pharmaceutical applications” (KING FAISAL UNIVERSITY, priority 2023, dated 2023).
